EC50 and CC50 data for 23 compounds are collected here from US10689340B2, “Substituted indoline derivatives as dengue viral replication inhibitors” (priority 2016, dated 2020).

Structures are written as SMILES.

For one data set, the system named is DENV-2 16681 strain. As to the kind of experiment: DENV-2 antiviral assay (eGFP fluorescence). The format is cell-based, Dengue virus. The following applies: DENV-2 16681 eGFP, Vero cells, MOI 0.5, 3 days. On the procedure:
The antiviral activity of all the compounds of the invention was tested against the DENV-2 16681 strain which was labeled with enhanced green fluorescent protein (eGPF). The culture medium consists of minimal essential medium supplemented with 2% of heat-inactivated fetal calf serum, 0.04% gentamycin (50 mg/mL) and 2 mM of L-glutamine. Vero cells, obtained from ECACC, were suspended in culture medium and 25 μL was added to 384-well plates (2500 cells/well), which already contain the antiviral compounds. Typically, these plates contain a 5-fold serial dilution of 9 dilution steps of the test compound at 200 times the final concentration in 100% DMSO (200 nL). […] Finally, each plate contains wells which are assigned as virus controls (containing cells and virus in the absence of compound), cell controls (containing cells in the absence of virus and compound) and medium controls (containing medium in the absence of cells, virus and compounds). To the wells assigned as medium control, 25 μL of culture medium was added instead of Vero cells. Once the cells were added to the plates, the plates were incubated for 30 minutes at room temperature to allow the cells to distribute evenly within the wells. Next, the plates were incubated in a fully humidified incubator (37° C., 5% CO2) until the next day. Then, DENV-2 strain 16681, labeled with eGFP, was added at a multiplicity of infection (MOI) of 0.5. Therefore, 15 μL of virus suspension was added to all the wells containing test compound and to the wells assigned as virus control. In parallel, 15 μL of culture medium was added to the medium and cell controls. Next, the plates were incubated for 3 days in a fully humidified incubator (37° C., 5% CO2). At the day of the read out, the eGFP fluorescence was measured using an automated fluorescence microscope at 488 nm (blue laser). Using an in-house LIMS system, inhibition dose response curves for each compound were calculated and the half maximal effective concentration (EC50) was determined. Therefore, the percent inhibition (I) for every test concentration is calculated using the following formula: I=100*(ST-SCC)/(SVC-SCC); ST, SCC and SVC are the amount of eGFP signal in the test compound, cell control and virus control wells, respectively. The EC50, represents the concentration of a compound at which the virus replication is inhibited with 50%, as measured by a 50% reduction of the eGFP fluorescent intensity compared to the virus control. The EC50 is calculated using linear interpolation (Table 1).

Another data set in a line: in vitro. The following applies: African green monkey.
A further data set deals with Vero cells. The following applies: African green monkey.
[1] abbreviates: Dengue virus, DENV2, Vero, 72 h.

As for `COc1cc(NC(C(=O)N2CCc3ccc(C(F)(F)F)cc32)c2ccc(F)cc2)cc(OCCCC(=O)O)c1` (racemic) [Compound 1, 4-(3-((1-(4-fluorophenyl)-2-oxo-2-(6-(trifluoromethyl)-indolin-1-yl)ethyl)amino)-5-methoxyphenoxy)butanoic acid], in the data set with DENV-2 16681 strain (setting [1]), a half-maximal response (EC50) required 2.1 nM. In the data set “in vitro”, the CC50 was more than 25000 nM.

On to `COc1cc(NC(C(=O)N2CCc3ccc(OC(F)(F)F)cc32)c2ccc(F)cc2)cc(OCCCC(=O)O)c1` (racemic) [Compound 2, 4-(3-((1-(4-fluorophenyl)-2-oxo-2-(6-(trifluoromethoxy)indolin-1-yl)ethyl)amino)-5-methoxyphenoxy)butanoic acid], for which the EC50 in the data set on DENV-2 16681 strain (setting [1]) came out at 0.55 nM. Further, in the data set “in vitro”, the CC50 came to 12000 nM.

Consider `COc1cc(NC(C(=O)N2CCc3ccc(OC(F)(F)F)cc32)c2ccc(Cl)cc2)cc(OCCCC(=O)O)c1` (racemic) [Compound 4, 4-(3-((1-(4-chlorophenyl)-2-oxo-2-(6-(trifluoromethoxy)indolin-1-yl)ethyl)amino)-5-methoxyphenoxy)butanoic acid], for which the EC50 in the data set with DENV-2 16681 strain (setting [1]) was 0.15 nM. For the same compound, the CC50 in “in vitro” was determined as 10000 nM.

Take `COc1cc(NC(C(=O)N2CCc3cc(OC)c(C(F)(F)F)cc32)c2ccc(Cl)cc2)cc(OCCCC(=O)O)c1` (racemic) [Compound 5, 4-(3-((1-(4-chlorophenyl)-2-(5-methoxy-6-(trifluoromethyl)indolin-1-yl)-2-oxoethyl)amino)-5-methoxyphenoxy)butanoic Acid]: the EC50 in the data set with DENV-2 16681 strain (setting [1]) is 0.62 nM. In addition, the CC50 in the data set “in vitro” was determined as 13000 nM.

As to `COc1cc(NC(C(=O)N2CCc3ccc(C(F)(F)F)cc32)c2ccc(Cl)cc2OC)cc(OCCCC(=O)O)c1` (racemic) [Compound 6, 4-(3-((1-(4-chloro-2-methoxyphenyl)-2-oxo-2-(6-(trifluoro-methyl)indolin-1-yl)ethyl)amino)-5-methoxyphenoxy)butanoic acid], a half-maximal response with DENV-2 16681 strain (setting [1]) (EC50) required 0.31 nM. In the data set “in vitro”, this compound came in with a CC50 of 12000 nM.

In turn, `COc1cc(NC(C(=O)N2CCc3cc(OC)c(C(F)(F)F)cc32)c2ccc(Cl)cc2OC)cc(OCCCC(=O)O)c1` (racemic) [Compound 7, 4-(3-((1-(4-chloro-2-methoxyphenyl)-2-(5-methoxy-6-(trifluoromethyl)indolin-1-yl)-2-oxoethyl)amino)-5-methoxyphenoxy)butanoic acid] came in with an EC50 in the data set with DENV-2 16681 strain (setting [1]) of 0.47 nM. The CC50 in “in vitro” came to 12000 nM.

In turn, `COc1cc(NC(C(=O)N2CCc3ccc(OC(F)(F)F)cc32)c2ccc(Cl)cc2OC)cc(OCCCC(=O)O)c1` (racemic) [Compound 8, 4-(3-((1-(4-chloro-2-methoxyphenyl)-2-oxo-2-(6-(trifluoro-methoxy)indolin-1-yl)ethyl)amino)-5-methoxyphenoxy)butanoic acid] registered an EC50 in the data set on DENV-2 16681 strain (setting [1]) of 0.13 nM. Further, in “in vitro”, the CC50 was found to be 12000 nM.

With `COc1cc(NC(C(=O)N2CCc3ccc(C(F)(F)F)cc32)c2ccc(Cl)cc2F)cc(OCCCC(=O)O)c1` (racemic) [Compound 9, 4-(3-((1-(4-chloro-2-fluorophenyl)-2-oxo-2-(6-(trifluoromethyl)indolin-1-yl)ethyl)amino)-5-methoxy-phenoxy)butanoic acid], a half-maximal response with DENV-2 16681 strain (setting [1]) (EC50) required 0.96 nM. Moreover, the CC50 in “in vitro” was found to be 11000 nM.

Regarding `COc1cc(NC(C(=O)N2CCc3ccc(OC(F)(F)F)cc32)c2ccc(Cl)cc2F)cc(OCCCC(=O)O)c1` (racemic) [Compound 10, 4-(3-((1-(4-chloro-2-fluorophenyl)-2-oxo-2-(6-(trifluoromethoxy)indolin-1-yl)ethyl)amino)-5-methoxy-phenoxy)butanoic acid], it took 0.24 nM to reach a half-maximal effect in the data set on DENV-2 16681 strain (setting [1]) (EC50). The compound also displayed a CC50 in “in vitro” of 10000 nM.

In turn, `COc1cc(NC(C(=O)N2CCc3cc(OC)c(C(F)(F)F)cc32)c2ccc(Cl)cc2F)cc(OCCCC(=O)O)c1` (racemic) [Compound 11, 4-(3-((1-(4-chloro-2-fluorophenyl)-2-(5-methoxy-6-(trifluoromethyl)indolin-1-yl)-2-oxoethyl)amino)-5-methoxyphenoxy)butanoic acid] displayed an EC50 with DENV-2 16681 strain (setting [1]) of 0.66 nM. Further, the CC50 in the data set “in vitro” was determined as 11000 nM.

For the compound `COc1cc(NC(C(=O)N2CCc3cc(OC)c(OC(F)(F)F)cc32)c2ccc(Cl)cc2)cc(OCCCC(=O)O)c1` (racemic) [Compound 12, 4-(3-((1-(4-chlorophenyl)-2-(5-methoxy-6-(trifluoro-methoxy)indolin-1-yl)-2-oxoethyl)amino)-5-methoxyphenoxy)butanoic acid], in the data set on DENV-2 16681 strain (setting [1]), the midpoint of the response, the EC50, lay at 0.73 nM. The compound further came in with a CC50 in the data set “in vitro” of 12000 nM.

In turn, `COc1cc(NC(C(=O)N2CCc3ccc(C(F)(F)F)cc32)c2ccc(F)cc2)cc(OCCCC(=O)O)c1` (single isomer, unassigned) [Compound 1A] gave an EC50 with DENV-2 16681 strain of 180 nM. Further, in “in vitro”, the CC50 was more than 25000 nM.

Take `COc1cc(NC(C(=O)N2CCc3ccc(OC(F)(F)F)cc32)c2ccc(F)cc2)cc(OCCCC(=O)O)c1` (single isomer, unassigned) [Compound 2A]: the EC50 in the data set with DENV-2 16681 strain turned out to be 56 nM. The compound also gave a CC50 in “in vitro” of 14000 nM.

With `COc1cc(NC(C(=O)N2CCc3ccc(C(F)(F)F)cc32)c2ccc(Cl)cc2)cc(OCCCC(=O)O)c1` (single isomer, unassigned) [Compound 3A], the EC50 in the data set on DENV-2 16681 strain came out at 3.9 nM. Moreover, in the data set “in vitro”, the CC50 amounted to 11000 nM.

For the compound `COc1cc(NC(C(=O)N2CCc3ccc(OC(F)(F)F)cc32)c2ccc(Cl)cc2)cc(OCCCC(=O)O)c1` (single isomer, unassigned) [Compound 4A], in the data set with DENV-2 16681 strain, the EC50 stood at 31 nM. Moreover, in the data set “in vitro”, the CC50 turned out to be 10000 nM.

As to `COc1cc(NC(C(=O)N2CCc3cc(OC)c(C(F)(F)F)cc32)c2ccc(Cl)cc2)cc(OCCCC(=O)O)c1` (single isomer, unassigned) [Compound 5A], the EC50 in the data set on DENV-2 16681 strain amounted to 19 nM. Also, the CC50 in the data set “in vitro” is 12000 nM.

Consider `COc1cc(NC(C(=O)N2CCc3ccc(C(F)(F)F)cc32)c2ccc(Cl)cc2OC)cc(OCCCC(=O)O)c1` (single isomer, unassigned) [Compound 6A], for which, in the data set with DENV-2 16681 strain, the EC50 came to 23 nM. In the data set “in vitro”, this compound returned a CC50 of 12000 nM.

For `COc1cc(NC(C(=O)N2CCc3cc(OC)c(C(F)(F)F)cc32)c2ccc(Cl)cc2OC)cc(OCCCC(=O)O)c1` (single isomer, unassigned) [Compound 7A], in the data set on DENV-2 16681 strain, the EC50 stood at 24 nM. In addition, the CC50 in the data set “in vitro” was found to be 12000 nM.

For the compound `COc1cc(NC(C(=O)N2CCc3ccc(OC(F)(F)F)cc32)c2ccc(Cl)cc2OC)cc(OCCCC(=O)O)c1` (single isomer, unassigned) [Compound 8A], the response with DENV-2 16681 strain was half-maximal at 280 nM (EC50). Besides, in the data set “in vitro”, the CC50 stood at 12000 nM.

In the case of `COc1cc(NC(C(=O)N2CCc3ccc(C(F)(F)F)cc32)c2ccc(Cl)cc2F)cc(OCCCC(=O)O)c1` (single isomer, unassigned) [Compound 9A], the response with DENV-2 16681 strain was half-maximal at 31 nM (EC50). In “in vitro”, this compound returned a CC50 of 12000 nM.

`COc1cc(NC(C(=O)N2CCc3ccc(OC(F)(F)F)cc32)c2ccc(Cl)cc2F)cc(OCCCC(=O)O)c1` (single isomer, unassigned) [Compound 10B] gave an EC50 in the data set with DENV-2 16681 strain of 5.5 nM. This compound also registered a CC50 in the data set with Vero cells of 8800 nM.

For `COc1cc(NC(C(=O)N2CCc3cc(OC)c(C(F)(F)F)cc32)c2ccc(Cl)cc2F)cc(OCCCC(=O)O)c1` (single isomer, unassigned) [Compound 11A], it took 15 nM to reach a half-maximal effect in the data set with DENV-2 16681 strain (EC50). Besides, the CC50 in “in vitro” was 12000 nM.

On to `COc1cc(NC(C(=O)N2CCc3cc(OC)c(OC(F)(F)F)cc32)c2ccc(Cl)cc2)cc(OCCCC(=O)O)c1` (single isomer, unassigned) [Compound 12A], for which the EC50 in the data set with DENV-2 16681 strain was 380 nM. Also, the CC50 in “in vitro” is 12000 nM.

In general, EC50 refers to the concentration needed to bring the measured effect to its halfway point.
